Results published in the kinase profiling compilation of Christmann-Franck et al. (2016).

Assays:
Experiment in all cases: radiometric filter-binding kinase assay, Kinase HotSpot
Conditions in all cases: compound 0.5 µM; ATP 10 µM
ABL1 (human) = ABL1 (human) (UniProt P00519)
AURKA (human) = AURKA (human) (UniProt O14965)
CAMK4 (human) = CAMK4 (human) (UniProt Q16566)
CAMKK1 (human) = CAMKK1 (human) (UniProt Q8N5S9)
CDK1 CCNA2 (human) = CDK1 CCNA2 (human) (UniProt P06493+P20248)
CHEK2 (human) = CHEK2 (human) (UniProt O96017)
CSNK1G3 (human) = CSNK1G3 (human) (UniProt Q9Y6M4)
DAPK3 (human) = DAPK3 (human) (UniProt O43293)
DYRK1A (human) = DYRK1A (human) (UniProt Q13627)
EPHA1 (human) = EPHA1 (human) (UniProt P21709)
EPHA3 (human) = EPHA3 (human) (UniProt P29320)
FGFR3 (human) = FGFR3 (human) (UniProt P22607)
FLT1 (human) = FLT1 (human) (UniProt P17948)
FLT3 (human) = FLT3 (human) (UniProt P36888)
FRK (human) = FRK (human) (UniProt P42685)
GRK4 (human) = GRK4 (human) (UniProt P32298)
GRK5 (human) = GRK5 (human) (UniProt P34947)
Sequence of GRK5 (human) (P34947 whole entry, looked up): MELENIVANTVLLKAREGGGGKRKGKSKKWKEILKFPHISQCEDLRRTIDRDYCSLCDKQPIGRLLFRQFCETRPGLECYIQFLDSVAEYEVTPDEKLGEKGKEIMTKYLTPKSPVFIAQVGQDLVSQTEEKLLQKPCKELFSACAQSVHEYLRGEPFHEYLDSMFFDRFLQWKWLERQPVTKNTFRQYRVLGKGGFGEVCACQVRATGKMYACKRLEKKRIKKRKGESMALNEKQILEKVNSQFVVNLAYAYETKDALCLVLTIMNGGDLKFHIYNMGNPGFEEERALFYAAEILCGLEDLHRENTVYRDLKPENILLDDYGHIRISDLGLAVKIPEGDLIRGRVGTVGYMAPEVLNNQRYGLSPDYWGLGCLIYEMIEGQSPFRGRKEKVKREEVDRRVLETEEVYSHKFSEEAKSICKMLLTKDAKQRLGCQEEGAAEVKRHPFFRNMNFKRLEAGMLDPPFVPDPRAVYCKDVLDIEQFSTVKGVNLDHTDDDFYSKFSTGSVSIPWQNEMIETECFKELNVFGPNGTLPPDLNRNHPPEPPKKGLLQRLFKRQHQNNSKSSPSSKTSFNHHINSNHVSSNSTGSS

GSK3A (human) = GSK3A (human) (UniProt P49840)
HIPK2 (human) = HIPK2 (human) (UniProt Q9H2X6)
IKBKE (human) = IKBKE (human) (UniProt Q14164)
MAP2K2 (human) = MAP2K2 (human) (UniProt P36507)
Sequence of MAP2K2 (human) (P36507 whole entry, looked up): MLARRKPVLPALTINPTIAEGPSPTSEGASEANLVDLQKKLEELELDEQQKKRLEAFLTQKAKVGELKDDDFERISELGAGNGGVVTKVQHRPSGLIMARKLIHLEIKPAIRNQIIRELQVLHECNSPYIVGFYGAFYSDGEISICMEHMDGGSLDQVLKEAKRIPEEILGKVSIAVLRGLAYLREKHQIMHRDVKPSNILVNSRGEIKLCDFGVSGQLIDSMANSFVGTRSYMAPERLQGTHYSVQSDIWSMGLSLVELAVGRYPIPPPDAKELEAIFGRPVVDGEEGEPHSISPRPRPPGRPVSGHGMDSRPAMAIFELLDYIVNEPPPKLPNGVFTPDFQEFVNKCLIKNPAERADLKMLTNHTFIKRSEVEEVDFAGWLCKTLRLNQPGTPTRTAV

MAPKAPK3 (human) = MAPKAPK3 (human) (UniProt Q16644)
MAPKAPK5 (human) = MAPKAPK5 (human) (UniProt Q8IW41)
Sequence of MAPKAPK5 (human) (Q8IW41 whole entry, looked up): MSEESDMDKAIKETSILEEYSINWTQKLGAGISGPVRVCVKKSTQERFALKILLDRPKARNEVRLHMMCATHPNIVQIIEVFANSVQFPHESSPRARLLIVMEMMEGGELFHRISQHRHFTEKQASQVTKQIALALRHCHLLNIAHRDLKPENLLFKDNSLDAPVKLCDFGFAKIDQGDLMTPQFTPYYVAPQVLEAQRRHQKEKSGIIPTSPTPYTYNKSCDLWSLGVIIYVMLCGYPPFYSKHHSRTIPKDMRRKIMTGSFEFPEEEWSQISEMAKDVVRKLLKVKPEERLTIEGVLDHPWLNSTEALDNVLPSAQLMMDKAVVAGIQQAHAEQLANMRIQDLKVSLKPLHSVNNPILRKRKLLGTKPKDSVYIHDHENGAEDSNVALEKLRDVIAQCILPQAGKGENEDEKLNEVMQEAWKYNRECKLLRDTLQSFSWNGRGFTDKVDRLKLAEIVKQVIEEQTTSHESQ

MARK4 (human) = MARK4 (human) (UniProt Q96L34)
MELK (human) = MELK (human) (UniProt Q14680)
MST1R (human) = MST1R (human) (UniProt Q04912)
NEK6 (human) = NEK6 (human) (UniProt Q9HC98)
Sequence of NEK6 (human) (Q9HC98 whole entry, looked up): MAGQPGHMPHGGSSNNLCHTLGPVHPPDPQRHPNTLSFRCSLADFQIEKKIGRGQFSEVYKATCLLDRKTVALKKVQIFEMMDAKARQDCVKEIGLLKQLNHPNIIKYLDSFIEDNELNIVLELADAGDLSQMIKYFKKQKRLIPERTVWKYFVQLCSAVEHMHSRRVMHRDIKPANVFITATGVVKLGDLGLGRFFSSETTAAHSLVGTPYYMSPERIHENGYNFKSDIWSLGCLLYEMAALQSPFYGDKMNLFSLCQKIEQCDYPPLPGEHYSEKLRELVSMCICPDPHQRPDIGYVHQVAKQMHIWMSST

NEK7 (human) = NEK7 (human) (UniProt Q8TDX7)
PAK2 (human) = PAK2 (human) (UniProt Q13177)
PBK (human) = PBK (human) (UniProt Q96KB5)
Sequence of PBK (human) (Q96KB5 whole entry, looked up): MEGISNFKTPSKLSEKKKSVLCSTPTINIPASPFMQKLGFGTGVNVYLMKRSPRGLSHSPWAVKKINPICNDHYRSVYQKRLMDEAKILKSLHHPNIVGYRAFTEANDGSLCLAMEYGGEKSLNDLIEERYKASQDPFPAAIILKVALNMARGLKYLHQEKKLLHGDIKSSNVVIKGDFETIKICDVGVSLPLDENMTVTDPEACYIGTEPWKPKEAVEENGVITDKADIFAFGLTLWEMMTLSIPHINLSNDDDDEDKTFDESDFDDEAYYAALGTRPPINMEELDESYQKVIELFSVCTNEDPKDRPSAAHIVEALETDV

PHKG2 (human) = PHKG2 (human) (UniProt P15735)
PRKCB1 (human) = PRKCB1 (human) (UniProt P05771)
Sequence of PRKCB1 (human) (P05771 whole entry, looked up): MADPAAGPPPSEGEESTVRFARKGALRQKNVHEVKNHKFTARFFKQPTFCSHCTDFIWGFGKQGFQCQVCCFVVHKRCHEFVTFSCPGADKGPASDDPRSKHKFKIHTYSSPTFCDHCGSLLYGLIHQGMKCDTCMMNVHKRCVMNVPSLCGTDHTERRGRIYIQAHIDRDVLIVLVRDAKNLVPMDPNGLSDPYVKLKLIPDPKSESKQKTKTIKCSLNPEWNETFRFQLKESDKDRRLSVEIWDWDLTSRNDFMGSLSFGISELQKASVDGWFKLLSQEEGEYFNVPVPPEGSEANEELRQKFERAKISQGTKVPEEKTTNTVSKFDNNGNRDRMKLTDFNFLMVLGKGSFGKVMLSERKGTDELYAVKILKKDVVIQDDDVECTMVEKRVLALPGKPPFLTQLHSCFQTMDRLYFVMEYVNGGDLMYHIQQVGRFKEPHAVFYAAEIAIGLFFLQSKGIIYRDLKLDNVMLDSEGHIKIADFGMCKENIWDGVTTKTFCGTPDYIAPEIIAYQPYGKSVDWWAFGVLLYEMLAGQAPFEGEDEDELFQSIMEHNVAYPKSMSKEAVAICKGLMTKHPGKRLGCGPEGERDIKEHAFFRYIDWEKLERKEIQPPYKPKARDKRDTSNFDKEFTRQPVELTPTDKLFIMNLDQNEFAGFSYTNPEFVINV

PRKCG (human) = PRKCG (human) (UniProt P05129)
PRKCH (human) = PRKCH (human) (UniProt P24723)
PRKD3 (human) = PRKD3 (human) (UniProt O94806)
PRKG2 (human) = PRKG2 (human) (UniProt Q13237)
ROCK1 (human) = ROCK1 (human) (UniProt Q13464)
[1] = test system: SGK1 (human), O00141 [S422D]
Sequence of SGK1 (human), O00141 [S422D] (O00141 whole entry S422D, looked up): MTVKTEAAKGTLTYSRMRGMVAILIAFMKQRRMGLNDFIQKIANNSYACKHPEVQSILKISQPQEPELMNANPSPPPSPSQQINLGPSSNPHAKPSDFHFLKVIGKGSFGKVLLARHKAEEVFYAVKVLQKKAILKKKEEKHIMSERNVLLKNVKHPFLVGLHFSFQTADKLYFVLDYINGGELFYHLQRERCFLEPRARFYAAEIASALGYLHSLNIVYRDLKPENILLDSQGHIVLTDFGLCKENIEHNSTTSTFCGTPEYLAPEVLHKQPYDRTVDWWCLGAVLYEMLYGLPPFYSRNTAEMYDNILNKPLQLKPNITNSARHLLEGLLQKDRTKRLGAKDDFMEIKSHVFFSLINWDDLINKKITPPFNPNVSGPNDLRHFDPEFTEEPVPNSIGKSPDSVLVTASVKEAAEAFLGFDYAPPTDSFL

SRPK1 (human) = SRPK1 (human) (UniProt Q96SB4)
Sequence of SRPK1 (human) (Q96SB4 whole entry, looked up): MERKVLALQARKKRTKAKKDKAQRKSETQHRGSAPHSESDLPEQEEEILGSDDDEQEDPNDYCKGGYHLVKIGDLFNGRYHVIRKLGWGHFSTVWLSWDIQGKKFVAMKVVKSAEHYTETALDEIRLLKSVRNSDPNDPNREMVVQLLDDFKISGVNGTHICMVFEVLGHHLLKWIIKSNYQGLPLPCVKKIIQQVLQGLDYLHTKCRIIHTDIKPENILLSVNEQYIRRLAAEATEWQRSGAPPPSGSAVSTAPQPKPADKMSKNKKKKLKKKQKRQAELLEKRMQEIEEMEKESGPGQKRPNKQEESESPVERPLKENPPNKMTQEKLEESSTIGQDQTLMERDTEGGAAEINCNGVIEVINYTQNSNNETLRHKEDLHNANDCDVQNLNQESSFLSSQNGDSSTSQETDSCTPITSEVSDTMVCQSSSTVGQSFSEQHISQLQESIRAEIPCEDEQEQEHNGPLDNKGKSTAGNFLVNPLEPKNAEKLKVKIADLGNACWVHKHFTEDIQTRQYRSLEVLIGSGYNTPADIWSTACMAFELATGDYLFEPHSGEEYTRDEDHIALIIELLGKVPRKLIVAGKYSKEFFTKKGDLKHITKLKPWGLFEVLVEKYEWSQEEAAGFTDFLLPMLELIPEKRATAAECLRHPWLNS

SRPK2 (human) = SRPK2 (human) (UniProt P78362)
TSSK1B (human) = TSSK1B (human) (UniProt Q9BXA7)
Sequence of TSSK1B (human) (Q9BXA7 whole entry, looked up): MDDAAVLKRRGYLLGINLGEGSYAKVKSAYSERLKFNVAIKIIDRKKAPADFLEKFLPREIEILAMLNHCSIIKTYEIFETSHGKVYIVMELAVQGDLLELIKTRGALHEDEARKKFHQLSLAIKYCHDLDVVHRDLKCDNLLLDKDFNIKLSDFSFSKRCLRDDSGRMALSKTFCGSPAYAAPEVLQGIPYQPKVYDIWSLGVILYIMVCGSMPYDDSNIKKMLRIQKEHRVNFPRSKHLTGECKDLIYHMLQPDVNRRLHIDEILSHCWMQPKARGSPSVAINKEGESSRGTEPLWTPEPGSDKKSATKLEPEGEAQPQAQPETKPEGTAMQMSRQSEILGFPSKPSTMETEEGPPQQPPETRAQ

**Q.** How did the residual activity (ABL1 (human)) turn out when `CCCCc1c(-c2ccc(O)cc2)[nH]c2nccnc12` was run?
**A.** The residual activity was 79%.

**Q.** What about the residual activity (AURKA (human)) of the same compound?
**A.** Its residual activity is 24.5%.

**Q.** And the residual activity (CAMK4 (human))?
**A.** Its residual activity is 93.9%.

**Q.** And the residual activity (CAMKK1 (human))?
**A.** The residual activity was 89.7%.

**Q.** What about the residual activity (CDK1 CCNA2 (human)) of the same compound?
**A.** Its residual activity is 60.3%.

**Q.** And the residual activity (CHEK2 (human))?
**A.** The residual activity was 61.1%.

**Q.** What about the residual activity (CSNK1G3 (human)) of the same compound?
**A.** The residual activity was 82.3%.

**Q.** And the residual activity (DAPK3 (human))?
**A.** The residual activity was 94.9%.

**Q.** And the residual activity (DYRK1A (human))?
**A.** The residual activity was 92.9%.

**Q.** What about the residual activity (EPHA1 (human)) of the same compound?
**A.** The residual activity was 68.8%.

**Q.** What about the residual activity (EPHA3 (human)) of the same compound?
**A.** Its residual activity is 95%.

**Q.** What about the residual activity (FGFR3 (human)) of the same compound?
**A.** The residual activity was 80%.

**Q.** And the residual activity (FLT1 (human))?
**A.** The residual activity was 86.3%.

**Q.** And the residual activity (FLT3 (human))?
**A.** The residual activity was 45.3%.

**Q.** And the residual activity (FRK (human))?
**A.** The residual activity was 87.6%.

**Q.** And the residual activity (GRK4 (human))?
**A.** Its residual activity is 101%.

**Q.** What about the residual activity (GRK5 (human)) of the same compound?
**A.** The residual activity was 104%.

**Q.** And the residual activity (GSK3A (human))?
**A.** Its residual activity is 57.7%.

**Q.** And the residual activity (HIPK2 (human))?
**A.** The residual activity was 88.5%.

**Q.** What about the residual activity (IKBKE (human)) of the same compound?
**A.** Its residual activity is 88.3%.

**Q.** What about the residual activity (MAP2K2 (human)) of the same compound?
**A.** The residual activity was 84.7%.

**Q.** And the residual activity (MAPKAPK3 (human))?
**A.** The residual activity was 92.8%.

**Q.** And the residual activity (MAPKAPK5 (human))?
**A.** The residual activity was 93.1%.

**Q.** What about the residual activity (MARK4 (human)) of the same compound?
**A.** The residual activity was 84.6%.

**Q.** And the residual activity (MELK (human))?
**A.** The residual activity was 82.5%.

**Q.** What about the residual activity (MST1R (human)) of the same compound?
**A.** Its residual activity is 101%.

**Q.** What about the residual activity (NEK6 (human)) of the same compound?
**A.** The residual activity was 123%.

**Q.** What about the residual activity (NEK7 (human)) of the same compound?
**A.** Its residual activity is 111%.

**Q.** And the residual activity (PAK2 (human))?
**A.** Its residual activity is 84.5%.

**Q.** And the residual activity (PBK (human))?
**A.** Its residual activity is 75.6%.

**Q.** And the residual activity (PHKG2 (human))?
**A.** Its residual activity is 100%.

**Q.** And the residual activity (PRKCB1 (human))?
**A.** Its residual activity is 95.5%.

**Q.** And the residual activity (PRKCG (human))?
**A.** Its residual activity is 95.1%.

**Q.** What about the residual activity (PRKCH (human)) of the same compound?
**A.** Its residual activity is 90.5%.

**Q.** What about the residual activity (PRKD3 (human)) of the same compound?
**A.** Its residual activity is 67.4%.

**Q.** And the residual activity (PRKG2 (human))?
**A.** Its residual activity is 92.6%.

**Q.** What about the residual activity (ROCK1 (human)) of the same compound?
**A.** Its residual activity is 98.6%.

**Q.** And the residual activity [1]?
**A.** The residual activity was 88.1%.

**Q.** And the residual activity (SRPK1 (human))?
**A.** The residual activity was 101%.

**Q.** And the residual activity (SRPK2 (human))?
**A.** Its residual activity is 110%.

**Q.** What about the residual activity (TSSK1B (human)) of the same compound?
**A.** The residual activity was 62%.
